Values after ≈ are worked out from the molar mass of the structure shown. Where two headings read alike, the source gives them in different places.
Legend:
Rhizoctonia solani (Rs) = assay: Growth inhibition assay of fungal pathogens, Rs; assay type: cell-based; conditions: 48 h
Method: Compounds of the present invention were evaluated in a growth inhibition assay to determine the ability to control the growth of fungal pathogens, such as Botrtyis cinerea (Bc), Collectotrichum graminicola (Cg), Diplodia maydis (Dm), Fusarium moniliforme (Fm), Fusarium virguliforme (Fv), Phytophthora capsici (Pc), Rhizoctonia solani (Rs), and Septoria tritici (St).
Compounds to be tested were dissolved in DMSO at 2.5 mg/ml to produce compound stock solutions (“stocks”). Stocks were diluted with DMSO by a five-fold dilution in a 96-well stock plate, and two sets of final concentrations of 50, 10, and 2 ppm or 2, 0.4, and 0.08 ppm were obtained in vitro. A set of positive controls was also prepared, with various concentrations of Soraphen (2, 0.4, and 0.08 ppm), Metalaxyl (1.1, 0.22, and 0.04 ppm), and Metconazole (2, 0.4, and 0.08 ppm or 0.2, 0.04, and 0.008 ppm) after the five-fold dilutions. Negative controls on each plate included 2% DMSO, water, and a blank (media+2% DMSO).
Fungal spores were isolated from previously sub-cultured plates of Botrtyis cinerea (Bc), Collectotrichum graminicola (Cg), Diplodia maydis (Dm), Fusarium moniliforme (Fm), Fusarium virguliforme (Fv), Phytophthora capsici (Pc), and Septoria tritici (St). The isolated spores were diluted to individual concentrations with a 17% V8 liquid media. For Rhizoctonia solani (Rs) and Pythium irregulare, 1.5 mm mycelial plugs were used in place of spores and/4 Potato Dextrose Broth (PDB) was used for dilution. The spore concentrations and plug sizes were based on growth curves generated at 48 hours for each pathogen.
In a second 96-well plate, the spores or mycelial plugs, media, diluted compound solutions, and controls were combined. Once the compound was added, a true final concentration of compound in each well was measured by an OD600 reading, which adjusted for any compound precipitation that might have occurred in the well. Plate readings were repeated at both 24 and 48 hours. The blank negative control was used as a background subtraction. Additional visual ratings were performed at both 24 and 48 hours for checking on precipitation and confirming efficacy. Visual and OD600 ratings of the compounds at 48 hours were compared to the 2% DMSO negative control, and the percent of pathogen growth inhibition was determined based on those values.

human (hACC2) = human (hACC2) (Homo sapiens, UniProt O00763); assay: In vitro ACC inhibition assay (ADP-Glo), hACC2; assay type: biochemical; conditions: 5 nM ACC2, 20 μM ATP, 20 μM acetyl-CoA
Method: The detailed procedure is as follows. […] 10 μL ADP glo reagent was added. […] 20 μL kinase detection reagent was added.

[1] = read-out: Concentration at 90% Inhibition Rs, Rhizoctonia solani, mycelial plugs, growth inhibition at 48 hours vs 2% DMSO control
[2] = read-out: Concentration at 90% Inhibition Rs, Rhizoctonia solani, mycelial plugs, growth inhibition vs 2% DMSO control at 48 hours
[3] = mycelial plugs, growth inhibition at 48 hours vs 2% DMSO control, read-out: Concentration at 90% Inhibition Rs
[4] = mycelial plugs, growth inhibition vs 2% DMSO control at 48 hours, read-out: Concentration at 90% Inhibition Rs

Sequence of human (hACC2) (O00763 whole entry): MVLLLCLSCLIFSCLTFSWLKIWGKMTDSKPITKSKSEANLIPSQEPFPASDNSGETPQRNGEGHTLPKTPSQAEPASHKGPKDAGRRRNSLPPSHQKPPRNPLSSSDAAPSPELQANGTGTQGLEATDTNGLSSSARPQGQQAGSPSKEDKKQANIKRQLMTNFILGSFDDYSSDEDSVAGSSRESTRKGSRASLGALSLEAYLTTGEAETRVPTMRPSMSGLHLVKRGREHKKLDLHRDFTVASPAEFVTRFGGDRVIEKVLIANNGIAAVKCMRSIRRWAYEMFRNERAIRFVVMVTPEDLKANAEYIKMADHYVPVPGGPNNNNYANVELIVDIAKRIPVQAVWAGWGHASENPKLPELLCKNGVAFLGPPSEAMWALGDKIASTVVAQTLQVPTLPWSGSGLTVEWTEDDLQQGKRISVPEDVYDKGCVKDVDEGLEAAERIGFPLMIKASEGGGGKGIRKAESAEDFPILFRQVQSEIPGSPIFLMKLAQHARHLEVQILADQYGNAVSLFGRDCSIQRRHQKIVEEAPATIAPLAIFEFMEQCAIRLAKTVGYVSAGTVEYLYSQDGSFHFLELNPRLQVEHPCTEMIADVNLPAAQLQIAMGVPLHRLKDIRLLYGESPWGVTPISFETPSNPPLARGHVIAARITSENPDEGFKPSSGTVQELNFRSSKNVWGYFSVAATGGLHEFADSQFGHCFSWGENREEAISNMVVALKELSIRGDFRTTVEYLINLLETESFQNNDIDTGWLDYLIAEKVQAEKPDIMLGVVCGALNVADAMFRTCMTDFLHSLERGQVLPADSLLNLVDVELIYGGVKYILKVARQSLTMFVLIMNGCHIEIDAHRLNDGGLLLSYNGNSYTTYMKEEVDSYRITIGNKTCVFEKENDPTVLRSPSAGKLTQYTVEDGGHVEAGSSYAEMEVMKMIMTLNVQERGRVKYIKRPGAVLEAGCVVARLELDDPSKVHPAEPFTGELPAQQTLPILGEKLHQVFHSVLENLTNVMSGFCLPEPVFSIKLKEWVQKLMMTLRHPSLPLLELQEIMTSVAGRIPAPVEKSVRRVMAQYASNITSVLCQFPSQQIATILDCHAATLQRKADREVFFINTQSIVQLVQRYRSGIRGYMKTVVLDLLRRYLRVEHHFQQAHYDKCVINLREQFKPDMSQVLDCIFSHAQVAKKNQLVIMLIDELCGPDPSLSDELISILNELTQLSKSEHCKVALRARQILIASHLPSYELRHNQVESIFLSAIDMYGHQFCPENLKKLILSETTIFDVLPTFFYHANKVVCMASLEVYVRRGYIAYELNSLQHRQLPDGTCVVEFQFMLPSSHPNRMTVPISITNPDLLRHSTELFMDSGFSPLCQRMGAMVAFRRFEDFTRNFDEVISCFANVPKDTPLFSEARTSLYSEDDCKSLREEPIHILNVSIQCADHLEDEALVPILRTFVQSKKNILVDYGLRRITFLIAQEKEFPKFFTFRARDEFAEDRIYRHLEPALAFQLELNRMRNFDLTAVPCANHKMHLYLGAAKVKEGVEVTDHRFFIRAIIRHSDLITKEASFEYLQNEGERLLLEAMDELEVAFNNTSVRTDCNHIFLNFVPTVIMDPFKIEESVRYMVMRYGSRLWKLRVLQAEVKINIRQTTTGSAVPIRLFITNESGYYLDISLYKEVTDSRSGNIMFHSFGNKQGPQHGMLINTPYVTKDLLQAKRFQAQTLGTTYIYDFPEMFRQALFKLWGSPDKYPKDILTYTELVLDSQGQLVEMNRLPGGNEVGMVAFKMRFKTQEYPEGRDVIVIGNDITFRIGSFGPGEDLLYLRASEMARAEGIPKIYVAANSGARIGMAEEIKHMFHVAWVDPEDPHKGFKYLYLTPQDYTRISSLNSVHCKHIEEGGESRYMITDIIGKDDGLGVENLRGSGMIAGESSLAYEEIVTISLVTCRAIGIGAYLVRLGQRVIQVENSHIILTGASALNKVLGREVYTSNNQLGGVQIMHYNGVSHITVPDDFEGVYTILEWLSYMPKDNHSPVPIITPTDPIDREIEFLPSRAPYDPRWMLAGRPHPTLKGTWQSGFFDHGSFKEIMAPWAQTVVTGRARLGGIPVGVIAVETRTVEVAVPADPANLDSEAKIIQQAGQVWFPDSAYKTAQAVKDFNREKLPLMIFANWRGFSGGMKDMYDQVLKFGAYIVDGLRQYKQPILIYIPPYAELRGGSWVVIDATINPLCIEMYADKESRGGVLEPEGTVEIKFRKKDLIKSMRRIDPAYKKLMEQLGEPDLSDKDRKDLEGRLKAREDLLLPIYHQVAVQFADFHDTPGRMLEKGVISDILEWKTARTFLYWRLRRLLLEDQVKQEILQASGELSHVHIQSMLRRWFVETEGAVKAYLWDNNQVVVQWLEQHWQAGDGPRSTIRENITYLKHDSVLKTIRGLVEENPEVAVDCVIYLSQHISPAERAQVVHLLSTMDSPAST

COc1ccc(F)cc1[C@H](Cn1c(=O)n(C(C)(C)C(=O)NC(C)C)c(=O)c2c(C)c(-n3nccn3)sc21)OC1CCOCC1 [Compound I-23, (R)-2-(1-(2-(5-fluoro-2-methoxyphenyl)-2-((tetrahydro-2H-pyran-4-yl)oxy)ethyl)-5-methyl-2,4-dioxo-6-(2H-1,2,3-triazol-2-yl)-1,4-dihydro-thieno[2,3-d]pyrimidin-3(2H)-yl)-N-isopropyl-2-methylpropanamide]
IC90 (Rhizoctonia solani (Rs); [1]): 0.08 µg/mL (≈ 0.127 µM) | IC90 (Rhizoctonia solani (Rs); [2]): 0.08 µg/mL (≈ 0.127 µM) | IC50 (human (hACC2); Table 2a): 5 to 10 nM | IC50 (human (hACC2); Table 2b, additional results): 5 to 10 nM

COc1ccc(F)cc1[C@H](Cn1c(=O)n(C(C)(C)C(=O)N2CCCC2)c(=O)c2c(C)c(-n3nccn3)sc21)OC1CCOCC1 [Compound I-25]
IC90 (Rhizoctonia solani (Rs); [3]): 0.08 µg/mL (≈ 0.125 µM) | IC90 (Rhizoctonia solani (Rs); [4]): 0.08 µg/mL (≈ 0.125 µM) | IC50 (human (hACC2); Table 2a): 5 to 10 nM | IC50 (human (hACC2); Table 2b, additional results): 5 to 10 nM

COc1ccc(F)cc1[C@H](Cn1c(=O)n(CC(=O)N2CCCC2)c(=O)c2c(C)c(-n3nccn3)sc21)OC(C)C [Compound I-36, (R)-1-(2-(5-fluoro-2-methoxyphenyl)-2-isopropoxyethyl)-5-methyl-3-(2-oxo-2-(pyrrolidin-1-yl)ethyl)-6-(2H-1,2,3-triazol-2-yl)thieno[2,3-d]pyrimidine-2,4(1H,3H)-dione]
IC90 (Rhizoctonia solani (Rs); [3]): 0.4 µg/mL (≈ 0.701 µM) | IC90 (Rhizoctonia solani (Rs); [4]): 0.4 µg/mL (≈ 0.701 µM) | IC50 (human (hACC2); Table 2a): 1 to 5 nM | IC50 (human (hACC2); Table 2b, additional results): 1 to 5 nM

COc1ccc(F)cc1[C@H](Cn1c(=O)n([C@@H](C)C(=O)NC(C)C)c(=O)c2c(C)c(-n3nccn3)sc21)OC(C)C [Compound I-37, (S)-2-(1-((R)-2-(5-fluoro-2-methoxyphenyl)-2-isopropoxyethyl)-5-methyl-2,4-dioxo-6-(2H-1,2,3-triazol-2-yl)-1,4-dihydrothieno[2,3-d]pyrimidin-3(2H)-yl)-N-isopropylpropanamide]
IC90 (Rhizoctonia solani (Rs); [1]): 0.4 µg/mL (≈ 0.698 µM) | IC90 (Rhizoctonia solani (Rs); [2]): 0.4 µg/mL (≈ 0.698 µM) | IC50 (human (hACC2); Table 2a): 5 to 10 nM | IC50 (human (hACC2); Table 2b, additional results): 5 to 10 nM

COc1ccc(F)cc1[C@H](Cn1c(=O)n([C@H](C)C(=O)NC(C)C)c(=O)c2c(C)c(-n3nccn3)sc21)OC(C)C [Compound I-38, (R)-2-(1-((R)-2-(5-fluoro-2-methoxyphenyl)-2-isopropoxy-ethyl)-5-methyl-2,4-dioxo-6-(2H-1,2,3-triazol-2-yl)-1,4-dihydrothieno[2,3-d]pyrimidin-3(2H)-yl)-N-isopropylpropanamide]
IC90 (Rhizoctonia solani (Rs); [1]): 0.4 µg/mL (≈ 0.698 µM) | IC90 (Rhizoctonia solani (Rs); [2]): 0.4 µg/mL (≈ 0.698 µM) | IC50 (human (hACC2); Table 2a): 5 to 10 nM | IC50 (human (hACC2); Table 2b, additional results): 5 to 10 nM

COc1ccc(F)cc1[C@H](Cn1c(=O)n([C@@H](C)C(=O)N2CCCC2)c(=O)c2c(C)c(-n3nccn3)sc21)OC(C)C [Compound I-39, 1-((R)-2-(5-fluoro-2-methoxyphenyl)-2-isopropoxyethyl)-5-methyl-3-((S)-1-oxo-1-(pyrrolidin-1-yl)propan-2-yl)-6-(2H-1,2,3-triazol-2-yl)thieno[2,3-d]pyrimidine-2,4(1H,3H)-dione]
IC90 (Rhizoctonia solani (Rs); [3]): 0.4 µg/mL (≈ 0.684 µM) | IC90 (Rhizoctonia solani (Rs); [4]): 0.4 µg/mL (≈ 0.684 µM) | IC50 (human (hACC2); Table 2a): 5 to 10 nM | IC50 (human (hACC2); Table 2b, additional results): 1 to 5 nM

COc1ccc(F)cc1[C@H](Cn1c(=O)n(C(C)C(=O)N2CCCC2)c(=O)c2c(C)c(-n3nccn3)sc21)OC(C)C (stereo partly drawn) [Compound I-40, 1-((R)-2-(5-fluoro-2-methoxyphenyl)-2-isopropoxyethyl)-5-methyl-3-(1-oxo-1-(pyrrolidin-1-yl)propan-2-yl)-6-(2H-1,2,3-triazol-2-yl)thieno[2,3-d]pyrimidine-2,4(1H,3H)-dione]
IC90 (Rhizoctonia solani (Rs); [3]): 0.4 µg/mL (≈ 0.684 µM) | IC90 (Rhizoctonia solani (Rs); [4]): 0.08 µg/mL (≈ 0.137 µM) | IC50 (human (hACC2); Table 2a): 5 to 10 nM | IC50 (human (hACC2); Table 2b, additional results): 5 to 10 nM

COc1ccc(F)cc1[C@H](Cn1c(=O)n(C(C)(C)C(=O)NC(C)C)c(=O)c2c(C)c(-n3nccn3)sc21)OCC(C)(C)O [Compound I-57, (R)-2-(1-(2-(5-fluoro-2-methoxyphenyl)-2-(2-hydroxy-2-methylpropoxy)ethyl)-5-methyl-2,4-dioxo-6-(2H-1,2,3-triazol-2-yl)-1,4-dihydro-thieno[2,3-d]pyrimidin-3(2H)-yl)-N-isopropyl-2-methylpropanamide]
IC90 (Rhizoctonia solani (Rs); [1]): 0.4 µg/mL (≈ 0.649 µM) | IC90 (Rhizoctonia solani (Rs); [2]): 0.4 µg/mL (≈ 0.649 µM) | IC50 (human (hACC2); Table 2a): 10 to 40 nM | IC50 (human (hACC2); Table 2b, additional results): 10 to 40 nM

COc1ccc(F)cc1[C@H](Cn1c(=O)n(C(C)(C)C(=O)N2CCCC2)c(=O)c2c(C)c(-n3nccn3)sc21)OCC(C)(C)O [Compound I-58, (R)-1-(2-(5-fluoro-2-methoxyphenyl)-2-(2-hydroxy-2-methylpropoxy)ethyl)-5-methyl-3-(2-methyl-1-oxo-1-(pyrrolidin-1-yl)propan-2-yl)-6-(2H-1,2,3-triazol-2-yl)thieno[2,3-d]pyrimidine-2,4(1H,3H)-dione]
IC90 (Rhizoctonia solani (Rs); [3]): 0.4 µg/mL (≈ 0.636 µM) | IC90 (Rhizoctonia solani (Rs); [4]): 0.4 µg/mL (≈ 0.636 µM) | IC50 (human (hACC2); Table 2a): 10 to 40 nM | IC50 (human (hACC2); Table 2b, additional results): 10 to 40 nM

COCCO[C@@H](Cn1c(=O)n(C(C)(C)C(=O)NC(C)C)c(=O)c2c(C)c(-n3nccn3)sc21)c1cc(F)ccc1OC [Compound I-59, (R)-2-(1-(2-(5-fluoro-2-methoxyphenyl)-2-(2-methoxy-ethoxy)ethyl)-5-methyl-2,4-dioxo-6-(2H-1,2,3-triazol-2-yl)-1,4-dihydro-thieno[2,3-d]pyrimidin-3(2H)-yl)-N-isopropyl-2-methylpropanamide]
IC90 (Rhizoctonia solani (Rs); [1]): 0.4 µg/mL (≈ 0.664 µM) | IC90 (Rhizoctonia solani (Rs); [2]): 0.4 µg/mL (≈ 0.664 µM) | IC50 (human (hACC2); Table 2a): 5 to 10 nM | IC50 (human (hACC2); Table 2b, additional results): 5 to 10 nM

COCCO[C@@H](Cn1c(=O)n(C(C)(C)C(=O)N2CCCC2)c(=O)c2c(C)c(-n3nccn3)sc21)c1cc(F)ccc1OC [Compound I-60, (R)-1-(2-(5-fluoro-2-methoxyphenyl)-2-(2-methoxy-ethoxy)ethyl)-5-methyl-3-(2-methyl-1-oxo-1-(pyrrolidin-1-yl)propan-2-yl)-6-(2H-1,2,3-triazol-2-yl)thieno[2,3-d]pyrimidine-2,4(1H,3H)-dione]
IC90 (Rhizoctonia solani (Rs); [3]): > 50 µg/mL | IC90 (Rhizoctonia solani (Rs); [4]): > 50 µg/mL | IC50 (human (hACC2); Table 2a): 10 to 40 nM | IC50 (human (hACC2); Table 2b, additional results): 10 to 40 nM

COCCOc1ccc(F)cc1[C@H](Cn1c(=O)n(C(C)(C)C(=O)NC(C)C)c(=O)c2c(C)c(-n3nccn3)sc21)OC1CCOCC1 [Compound I-61, (R)-2-(1-(2-(5-fluoro-2-(2-methoxyethoxy)phenyl)-2-((tetrahydro-2H-pyran-4-yl)oxy)ethyl)-5-methyl-2,4-dioxo-6-(2H-1,2,3-triazol-2-yl)-1,4-dihydrothieno[2,3-d]pyrimidin-3(2H)-yl)-N-isopropyl-2-methylpropanamide]
IC90 (Rhizoctonia solani (Rs); [3]): 0.08 µg/mL (≈ 0.119 µM) | IC90 (Rhizoctonia solani (Rs); [4]): 0.08 µg/mL (≈ 0.119 µM) | IC50 (human (hACC2); Table 2a): 5 to 10 nM | IC50 (human (hACC2); Table 2b, additional results): 5 to 10 nM

Reference: US10800791B2, “Triazole ACC inhibitors and uses thereof” (Gilead Apollo, LLC, priority 2015, dated 2020)
